Data published in patent US20240417410A1, “TRICYCLIC COMPOUNDS FOR THE TREATMENT OF CANCER” (Hoffmann-La Roche Inc., priority 2023, published 2024).
Read-outs that look alike come from different tables or passages of the source.

Tests used:
Test in all cases: Cell proliferation, CTG 3D, 7 d
Format in all cases: cell-based
GP2d = settings: Homo sapiens, KRAS (G12D)
Description: (§1) On Day-1, cells were plated in 384-well round-bottom ultra-low adhesion plates (cat. Corning 3830, with cell density adjusted according to Table 3. The assay plate was then centrifuged at 1000 rpm for 1 minute to ensure even distribution of cells. The plate was incubated at 37° C. in a 5% CO2 atmosphere (It is worth noting that for SW1271 cell plate, it needs to be incubated in an incubator without additional CO2).
(§2) On Day 0, Example 24 or A122 was added to each well using a Tecan HP D300E dispenser, with a 3-fold dilution across 9 doses. The final concentration of DMSO was normalized to 0.2%. The assay plate was then centrifuged at 1000 rpm for 1 minute and incubated for 7 days.
(§3) On Day 7, CellTiter-Glo (CTG) 3D reagent (Promega G9683) was dispensed into each well of a 384-well plate using a multi-drop dispenser (Thermo Scientific 66413). A liquid handling automation workstation (Bravo with a 384-well head) was used to mix the CTG reagents. Plates were left on a shaker for 30 minutes at 450 rpm, shielded from light.
(§4) For data analysis, the XL-fit software (Supplier: ID Business Solutions Ltd., Software version: XL fit 5.0) was utilized. The percentage of inhibition was calculated using the formula: Inhibition %=(Max-Sample value)/(Max-Min)×100. Curve fitting was performed as follows: For complete dose-response curves, the relative IC50 was reported from the fit. For incomplete curves, if minimal inhibition was greater than 50%, an IC50 less than the lowest compound concentration was reported. If minimal inhibition was between 20% and 50%, the bottom was locked at 0% and the IC50 was reported. If maximal inhibition was less than 50%, an IC50 greater than the highest compound concentration was reported.

Capan-2 = settings: Homo sapiens
Description: as §1, §2, §3, §4

RL95-2 = settings: Homo sapiens
Description: as §1, §2, §3, §4

AML-193 = settings: Homo sapiens
Description: as §1, §2, §3, §4

NOMO-1 = settings: Homo sapiens
Description: as §1, §2, §3, §4

LU99 = settings: Homo sapiens, Lu-99; LU99, KRAS (G12C)
Description: as §1, §2, §3, §4

ONS-76 = settings: Homo sapiens
Description: as §1, §2, §3, §4

HPAC = settings: Homo sapiens, KRAS (G12D)
Description: as §1, §2, §3, §4

A549 = settings: Homo sapiens
Description: as §1, §2, §3, §4

SW 837 = settings: Homo sapiens, SW837; SW 837, KRAS (G12C)
Description: as §1, §2, §3, §4

TYK-nu = settings: Homo sapiens
Description: as §1, §2, §3, §4

T24 = settings: Homo sapiens, T-24; T24, HRAS (p.G12V)
Description: as §1, §2, §3, §4

MDA-MB-134-VI = settings: Homo sapiens
Description: as §1, §2, §3, §4

GAK = settings: Homo sapiens
Description: as §1, §2, §3, §4

THP-1 = settings: Homo sapiens; THP-1, NRAS (p.G12D)
Description: as §1, §2, §3, §4

HCC-15 = settings: Homo sapiens, HCC15
Description: as §1, §2, §3, §4

KU1919 = settings: Homo sapiens, KU-19-19
Description: as §1, §2, §3, §4

KP-2 = settings: Homo sapiens
Description: as §1, §2, §3, §4

NCI-H747 = settings: Homo sapiens
Description: as §1, §2, §3, §4

KYSE-30 = settings: Homo sapiens
Description: as §1, §2, §3, §4

NCI-H1792 = settings: Homo sapiens; NCI-H1792, KRAS (G12C)
Description: as §1, §2, §3, §4

NCI-H2030 = settings: Homo sapiens; NCI-H2030, KRAS (G12C)
Description: as §1, §2, §3, §4

NCI-H650 = settings: Homo sapiens
Description: as §1, §2, §3, §4

SUM 159PT = settings: Homo sapiens, HRAS (p.G12D)
Description: as §1, §2, §3, §4

NCI-H1876 = settings: Homo sapiens
Description: as §1, §2, §3, §4

LCLC-97TM1 = settings: Homo sapiens; LCLC-97TM1, KRAS (G12V)
Description: as §1, §2, §3, §4

NCI-H2135 = settings: Homo sapiens
Description: as §1, §2, §3, §4

RD = settings: Homo sapiens
Description: as §1, §2, §3, §4

Q: `CO[C@@H](C)c1ncc(N2CCN(C)CC2)cc1-c1c2c3cc(cc4c3n1CCC4)-c1csc(n1)C[C@H](NC(=O)[C@H]1[C@H](C)[C@@H]1C)C(=O)N1CCC[C@H](N1)C(=O)OCC(C)(C)C2` (atropisomer, axis not shown; (M)) [Example 24, (1r,2R,3S)-N-[(7S,13S)-(20M)-20-[2-[(1S)-1-methoxyethyl]-5-(4-methylpiperazin-1-yl)-3-pyridyl]-17,17-dimethyl-8,14-dioxo-15-oxa-4-thia-9,21,30,31-tetrazahexacyclo[23.3.1.1^2,5.1^9,13.0^19,27.0^21,26]hentriaconta-1 (28),2,5 (31), 19,25 (29),26-hexaen-7-yl]-2,3-dimethyl-cyclopropanecarboxamide] was tested. Which IC50 (GP2d) did it give?
A: 630 pM

Q: And the IC50 (Capan-2; Capan-2)?
A: 230 pM

Q: And the IC50 (RL95-2; RL95-2, HRAS (p.Q61H), read-out: IC50)?
A: 1300 pM

Q: And the IC50 (AML-193; AML-193, NRAS (p.G13V), read-out: IC50)?
A: 1100 pM

Q: And the IC50 (NOMO-1; NOMO-1, KRAS (G13D), read-out: IC50)?
A: 470 pM

Q: What about the IC50 (LU99) of the same compound?
A: 590 pM

Q: What about the IC50 (ONS-76; ONS-76, NRAS (p.Q61R), read-out: IC50) of the same compound?
A: 900 pM

Q: What about the IC50 (HPAC) of the same compound?
A: 310 pM

Q: And the IC50 (A549; A549, KRAS (G12S), read-out: IC50)?
A: 720 pM

Q: What about the IC50 (SW 837) of the same compound?
A: 220 pM

Q: What about the IC50 (TYK-nu; TYK-nu, NRAS (p.G12D and p.Q61K), read-out: IC50) of the same compound?
A: 340 pM

Q: And the IC50 (T24)?
A: 300 pM

Q: And the IC50 (MDA-MB-134-VI; KRAS (G12R), read-out: IC50)?
A: 1500 pM

Q: What about the IC50 (GAK; GAK, NRAS (p.Q61L), read-out: IC50) of the same compound?
A: 10000 pM

Q: And the IC50 (THP-1)?
A: 260 pM

Q: What about the IC50 (HCC-15; HCC-15, NRAS (p.Q61K), read-out: IC50) of the same compound?
A: 680 pM

Q: What about the IC50 (KU1919; KU1919, NRAS (p.Q61R), read-out: IC50) of the same compound?
A: 2200 pM

Q: What about the IC50 (KP-2; KP-2, KRAS (G12R), read-out: IC50) of the same compound?
A: 350 pM

Q: And the IC50 (NCI-H747; NCI-H747, KRAS (G13D), read-out: IC50)?
A: 720 pM

Q: And the IC50 (KYSE-30; KYSE-30, HRAS (p.Q61L), read-out: IC50)?
A: 460 pM

Q: And the IC50 (NCI-H1792)?
A: 210 pM

Q: And the IC50 (NCI-H2030)?
A: 340 pM

Q: What about the IC50 (NCI-H650) of the same compound?
A: 2300 pM

Q: What about the IC50 (SUM 159PT) of the same compound?
A: 4500 pM

Q: What about the IC50 (NCI-H1876; NCI-H1876, NRAS (p.Q61K), read-out: IC50) of the same compound?
A: 3100 pM

Q: And the IC50 (LCLC-97TM1)?
A: 92 pM

Q: And the IC50 (NCI-H2135; NCI-H2135, NRAS (p.Q61K), read-out: IC50)?
A: 710 pM

Q: What about the IC50 (RD; NRAS (p.Q61H), read-out: IC50) of the same compound?
A: 360 pM

Q: How did the IC50 (GP2d) turn out when `CCn1c(-c2cc(N3CCN(C)CC3)cnc2[C@H](C)OC)c2c3cc(ccc31)-c1csc(n1)C[C@H](NC(=O)[C@H]1C[C@@H]1C)C(=O)N1CCC[C@H](N1)C(=O)OCC(C)(C)O2` [Example A122, reference compound] was run?
A: 550 pM

Q: What about the IC50 (Capan-2; Capan-2, KRAS (G12V), read-out: IC50) of the same compound?
A: 590 pM

Q: And the IC50 (RL95-2; RL95-2)?
A: 2600 pM

Q: And the IC50 (AML-193)?
A: 2100 pM

Q: And the IC50 (NOMO-1; NOMO-1)?
A: 860 pM

Q: What about the IC50 (LU99) of the same compound?
A: 910 pM

Q: What about the IC50 (ONS-76; ONS-76) of the same compound?
A: 2100 pM

Q: And the IC50 (HPAC)?
A: 300 pM

Q: What about the IC50 (A549; A549) of the same compound?
A: 1100 pM

Q: What about the IC50 (SW 837) of the same compound?
A: 670 pM

Q: What about the IC50 (TYK-nu) of the same compound?
A: 680 pM

Q: What about the IC50 (T24) of the same compound?
A: 570 pM

Q: And the IC50 (MDA-MB-134-VI)?
A: 2600 pM

Q: And the IC50 (GAK)?
A: 19000 pM

Q: What about the IC50 (THP-1) of the same compound?
A: 180 pM

Q: What about the IC50 (HCC-15) of the same compound?
A: 1700 pM

Q: And the IC50 (KU1919)?
A: 2800 pM

Q: And the IC50 (KP-2)?
A: 430 pM

Q: And the IC50 (NCI-H747; NCI-H747)?
A: 910 pM

Q: And the IC50 (KYSE-30; KYSE-30)?
A: 1000 pM

Q: And the IC50 (NCI-H1792)?
A: 430 pM

Q: And the IC50 (NCI-H2030)?
A: 560 pM

Q: What about the IC50 (NCI-H650) of the same compound?
A: 9600 pM

Q: And the IC50 (SUM 159PT)?
A: 3000 pM

Q: And the IC50 (NCI-H1876)?
A: 3600 pM

Q: What about the IC50 (LCLC-97TM1) of the same compound?
A: 170 pM

Q: What about the IC50 (NCI-H2135) of the same compound?
A: 1200 pM

Q: And the IC50 (RD)?
A: 700 pM
